Assay results reported in ChEMBL document CHEMBL1201862, “PubChem BioAssay data set” (2004).
Calls of active or inactive are those of the source.

Key:
[1] = target: Dual specificity protein phosphatase 3 (Homo sapiens, UniProt P51452); assay: VHR phosphatase inhibition, dose response, selectivity assay for STEP inhibitor project, biochemical (AID 602374); format: functional; conditions: read-out: IC50_Mean
[2] = target: T1, Tyrosine-protein phosphatase non-receptor type 5 (Homo sapiens, UniProt P54829); assay: STEP phosphatase inhibitors, confirmation, biochemical, fluorescence intensity, uHTS hits (AID 602372); format: functional; conditions: read-out: IC50_Mean
T1 sequence (P54829 whole entry): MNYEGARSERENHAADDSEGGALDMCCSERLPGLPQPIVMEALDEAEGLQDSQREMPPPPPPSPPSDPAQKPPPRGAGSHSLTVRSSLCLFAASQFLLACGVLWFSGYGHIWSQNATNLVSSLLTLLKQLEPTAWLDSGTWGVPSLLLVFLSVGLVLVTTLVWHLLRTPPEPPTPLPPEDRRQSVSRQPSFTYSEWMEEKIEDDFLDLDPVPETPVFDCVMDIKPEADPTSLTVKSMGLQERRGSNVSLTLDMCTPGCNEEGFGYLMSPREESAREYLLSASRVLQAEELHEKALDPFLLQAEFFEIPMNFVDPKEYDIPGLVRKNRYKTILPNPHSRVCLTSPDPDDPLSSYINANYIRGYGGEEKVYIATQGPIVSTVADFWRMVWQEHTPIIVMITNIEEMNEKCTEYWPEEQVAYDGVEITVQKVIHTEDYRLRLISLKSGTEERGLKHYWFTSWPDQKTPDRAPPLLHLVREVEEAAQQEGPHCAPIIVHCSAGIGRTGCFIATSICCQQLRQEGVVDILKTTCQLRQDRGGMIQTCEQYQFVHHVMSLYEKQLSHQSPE

[3] = target: T2, Tyrosine-protein phosphatase non-receptor type 11 (Homo sapiens, UniProt Q06124); assay: SHP2 phosphatase inhibition, dose response, selectivity assay for STEP inhibitor project, biochemical (AID 602367); format: functional; conditions: read-out: IC50_Mean
T2 sequence (Q06124 whole entry): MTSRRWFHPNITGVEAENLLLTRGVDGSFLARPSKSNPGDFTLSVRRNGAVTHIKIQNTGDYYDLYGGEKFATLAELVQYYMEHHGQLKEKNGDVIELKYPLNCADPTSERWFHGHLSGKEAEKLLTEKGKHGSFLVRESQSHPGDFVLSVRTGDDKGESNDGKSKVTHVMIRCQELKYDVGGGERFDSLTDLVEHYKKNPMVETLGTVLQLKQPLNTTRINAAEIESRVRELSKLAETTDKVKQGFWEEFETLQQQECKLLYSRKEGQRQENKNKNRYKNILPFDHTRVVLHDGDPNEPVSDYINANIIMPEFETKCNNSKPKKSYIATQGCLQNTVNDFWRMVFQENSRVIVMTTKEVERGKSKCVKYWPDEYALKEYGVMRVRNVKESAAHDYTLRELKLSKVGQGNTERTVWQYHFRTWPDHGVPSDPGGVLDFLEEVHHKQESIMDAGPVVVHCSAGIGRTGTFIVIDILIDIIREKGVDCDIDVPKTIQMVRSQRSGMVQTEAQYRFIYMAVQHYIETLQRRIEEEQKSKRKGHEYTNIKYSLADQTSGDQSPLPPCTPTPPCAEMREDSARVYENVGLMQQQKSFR

[4] = target: Nuclear receptor subfamily 5 group A member 2 (Homo sapiens, UniProt O00482); format: functional, cell-based;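 further: HEK293T cells transfected with LRH-1 and a StAR promoter luciferase reporter; potency for inhibitors that lower LRH-1 driven reporter light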
Sequence of Nuclear receptor subfamily 5 group A member 2 (O00482 whole entry): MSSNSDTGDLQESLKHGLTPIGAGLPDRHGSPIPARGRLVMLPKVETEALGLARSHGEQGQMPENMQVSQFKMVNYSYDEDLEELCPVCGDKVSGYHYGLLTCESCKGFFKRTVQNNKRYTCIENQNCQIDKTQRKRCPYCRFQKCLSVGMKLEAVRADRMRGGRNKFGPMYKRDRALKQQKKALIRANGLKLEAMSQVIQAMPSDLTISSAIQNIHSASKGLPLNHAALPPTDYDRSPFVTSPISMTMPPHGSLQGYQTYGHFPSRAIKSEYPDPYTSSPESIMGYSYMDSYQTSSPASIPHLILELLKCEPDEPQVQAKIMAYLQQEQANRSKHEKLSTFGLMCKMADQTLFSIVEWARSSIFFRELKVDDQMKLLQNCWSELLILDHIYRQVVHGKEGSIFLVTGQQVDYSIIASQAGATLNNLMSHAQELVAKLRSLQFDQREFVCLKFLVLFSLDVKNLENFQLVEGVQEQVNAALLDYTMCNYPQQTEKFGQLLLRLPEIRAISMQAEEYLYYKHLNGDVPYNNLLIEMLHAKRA

[5] = StAR promoter reporter inhibition counter-screen, dose response, counter-screen for LRH-1 inverse agonist project, cell-based, luminescence, luciferase reporter (AID 651969); format: functional
[6] = target: Steroidogenic factor 1 (Homo sapiens, UniProt Q13285); assay: Counterscreen for inverse agonists of the liver receptor homolog-1 (LRH-1; NR5A2): Luminescence-based cell-based high throughput dose response assay to identify inverse agonists of the Steroidogenic Factor 1 Nuclear Receptor (SF1; NR5A1).; format: functional
Sequence of Steroidogenic factor 1 (Q13285 whole entry): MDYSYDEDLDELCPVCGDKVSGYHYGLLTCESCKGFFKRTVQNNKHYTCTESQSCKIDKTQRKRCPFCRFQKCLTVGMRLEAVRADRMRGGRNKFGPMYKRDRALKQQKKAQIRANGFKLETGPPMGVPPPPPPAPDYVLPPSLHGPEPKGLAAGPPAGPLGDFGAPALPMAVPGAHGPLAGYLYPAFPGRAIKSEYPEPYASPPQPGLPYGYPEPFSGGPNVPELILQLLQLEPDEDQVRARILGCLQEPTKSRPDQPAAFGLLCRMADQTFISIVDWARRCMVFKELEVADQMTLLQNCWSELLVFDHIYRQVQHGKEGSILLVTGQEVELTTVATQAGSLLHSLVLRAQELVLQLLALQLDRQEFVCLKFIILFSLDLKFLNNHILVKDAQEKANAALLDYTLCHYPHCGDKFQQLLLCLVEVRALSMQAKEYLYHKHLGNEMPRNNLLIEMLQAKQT

[7] = target: T3, DNA repair protein RAD52 homolog (Homo sapiens, UniProt P43351); format: functional, biochemical
T3 sequence (P43351 whole entry): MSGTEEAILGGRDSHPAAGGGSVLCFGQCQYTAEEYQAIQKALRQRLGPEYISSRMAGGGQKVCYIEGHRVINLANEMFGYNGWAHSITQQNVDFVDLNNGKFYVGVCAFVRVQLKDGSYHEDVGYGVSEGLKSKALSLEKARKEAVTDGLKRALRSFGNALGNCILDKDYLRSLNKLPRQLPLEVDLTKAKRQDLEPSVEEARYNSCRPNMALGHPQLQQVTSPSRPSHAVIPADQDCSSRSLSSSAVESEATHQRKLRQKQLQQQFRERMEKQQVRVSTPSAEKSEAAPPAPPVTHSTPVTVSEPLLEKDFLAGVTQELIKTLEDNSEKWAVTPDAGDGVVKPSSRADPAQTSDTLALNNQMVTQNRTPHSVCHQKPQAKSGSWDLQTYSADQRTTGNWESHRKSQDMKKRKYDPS

[8] = target: T4, DNA repair and recombination protein RAD54-like (Homo sapiens, UniProt Q92698); assay: inhibitors of human RAD54 branch migration, confirmation, biochemical, fluorescence, cherry-picked samples, dose series (AID 651657); format: functional
T4 sequence (Q92698 whole entry): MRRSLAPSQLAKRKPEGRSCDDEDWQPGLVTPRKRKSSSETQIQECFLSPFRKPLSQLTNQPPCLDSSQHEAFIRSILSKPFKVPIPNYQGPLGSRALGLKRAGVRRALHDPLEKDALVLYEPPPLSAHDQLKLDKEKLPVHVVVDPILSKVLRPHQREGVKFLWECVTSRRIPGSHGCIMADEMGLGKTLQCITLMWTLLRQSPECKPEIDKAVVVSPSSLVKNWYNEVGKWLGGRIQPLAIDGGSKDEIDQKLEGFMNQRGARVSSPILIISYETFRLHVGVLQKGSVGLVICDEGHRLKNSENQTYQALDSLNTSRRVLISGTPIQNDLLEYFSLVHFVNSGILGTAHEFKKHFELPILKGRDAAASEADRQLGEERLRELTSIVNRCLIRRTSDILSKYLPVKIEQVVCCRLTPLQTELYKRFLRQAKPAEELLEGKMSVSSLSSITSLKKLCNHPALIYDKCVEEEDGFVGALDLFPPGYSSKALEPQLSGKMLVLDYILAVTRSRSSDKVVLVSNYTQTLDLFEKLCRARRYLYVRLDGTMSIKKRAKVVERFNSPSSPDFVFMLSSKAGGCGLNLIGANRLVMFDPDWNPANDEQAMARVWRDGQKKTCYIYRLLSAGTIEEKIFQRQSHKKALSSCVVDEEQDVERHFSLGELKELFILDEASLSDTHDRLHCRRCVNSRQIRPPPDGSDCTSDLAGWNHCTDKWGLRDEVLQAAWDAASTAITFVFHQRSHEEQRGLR

[9] = target: T5, Fatty acid synthase (Homo sapiens, UniProt P49327); assay: FAS thioesterase domain inhibitors, dose response, biochemical, kinetic fluorescence intensity (AID 624326); format: functional;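 further: rate of fluorescence rise from hydrolysis of a fluorogenic O-methyl fluorescein ester substrate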
T5 sequence (P49327 whole entry, the tested form may be a part): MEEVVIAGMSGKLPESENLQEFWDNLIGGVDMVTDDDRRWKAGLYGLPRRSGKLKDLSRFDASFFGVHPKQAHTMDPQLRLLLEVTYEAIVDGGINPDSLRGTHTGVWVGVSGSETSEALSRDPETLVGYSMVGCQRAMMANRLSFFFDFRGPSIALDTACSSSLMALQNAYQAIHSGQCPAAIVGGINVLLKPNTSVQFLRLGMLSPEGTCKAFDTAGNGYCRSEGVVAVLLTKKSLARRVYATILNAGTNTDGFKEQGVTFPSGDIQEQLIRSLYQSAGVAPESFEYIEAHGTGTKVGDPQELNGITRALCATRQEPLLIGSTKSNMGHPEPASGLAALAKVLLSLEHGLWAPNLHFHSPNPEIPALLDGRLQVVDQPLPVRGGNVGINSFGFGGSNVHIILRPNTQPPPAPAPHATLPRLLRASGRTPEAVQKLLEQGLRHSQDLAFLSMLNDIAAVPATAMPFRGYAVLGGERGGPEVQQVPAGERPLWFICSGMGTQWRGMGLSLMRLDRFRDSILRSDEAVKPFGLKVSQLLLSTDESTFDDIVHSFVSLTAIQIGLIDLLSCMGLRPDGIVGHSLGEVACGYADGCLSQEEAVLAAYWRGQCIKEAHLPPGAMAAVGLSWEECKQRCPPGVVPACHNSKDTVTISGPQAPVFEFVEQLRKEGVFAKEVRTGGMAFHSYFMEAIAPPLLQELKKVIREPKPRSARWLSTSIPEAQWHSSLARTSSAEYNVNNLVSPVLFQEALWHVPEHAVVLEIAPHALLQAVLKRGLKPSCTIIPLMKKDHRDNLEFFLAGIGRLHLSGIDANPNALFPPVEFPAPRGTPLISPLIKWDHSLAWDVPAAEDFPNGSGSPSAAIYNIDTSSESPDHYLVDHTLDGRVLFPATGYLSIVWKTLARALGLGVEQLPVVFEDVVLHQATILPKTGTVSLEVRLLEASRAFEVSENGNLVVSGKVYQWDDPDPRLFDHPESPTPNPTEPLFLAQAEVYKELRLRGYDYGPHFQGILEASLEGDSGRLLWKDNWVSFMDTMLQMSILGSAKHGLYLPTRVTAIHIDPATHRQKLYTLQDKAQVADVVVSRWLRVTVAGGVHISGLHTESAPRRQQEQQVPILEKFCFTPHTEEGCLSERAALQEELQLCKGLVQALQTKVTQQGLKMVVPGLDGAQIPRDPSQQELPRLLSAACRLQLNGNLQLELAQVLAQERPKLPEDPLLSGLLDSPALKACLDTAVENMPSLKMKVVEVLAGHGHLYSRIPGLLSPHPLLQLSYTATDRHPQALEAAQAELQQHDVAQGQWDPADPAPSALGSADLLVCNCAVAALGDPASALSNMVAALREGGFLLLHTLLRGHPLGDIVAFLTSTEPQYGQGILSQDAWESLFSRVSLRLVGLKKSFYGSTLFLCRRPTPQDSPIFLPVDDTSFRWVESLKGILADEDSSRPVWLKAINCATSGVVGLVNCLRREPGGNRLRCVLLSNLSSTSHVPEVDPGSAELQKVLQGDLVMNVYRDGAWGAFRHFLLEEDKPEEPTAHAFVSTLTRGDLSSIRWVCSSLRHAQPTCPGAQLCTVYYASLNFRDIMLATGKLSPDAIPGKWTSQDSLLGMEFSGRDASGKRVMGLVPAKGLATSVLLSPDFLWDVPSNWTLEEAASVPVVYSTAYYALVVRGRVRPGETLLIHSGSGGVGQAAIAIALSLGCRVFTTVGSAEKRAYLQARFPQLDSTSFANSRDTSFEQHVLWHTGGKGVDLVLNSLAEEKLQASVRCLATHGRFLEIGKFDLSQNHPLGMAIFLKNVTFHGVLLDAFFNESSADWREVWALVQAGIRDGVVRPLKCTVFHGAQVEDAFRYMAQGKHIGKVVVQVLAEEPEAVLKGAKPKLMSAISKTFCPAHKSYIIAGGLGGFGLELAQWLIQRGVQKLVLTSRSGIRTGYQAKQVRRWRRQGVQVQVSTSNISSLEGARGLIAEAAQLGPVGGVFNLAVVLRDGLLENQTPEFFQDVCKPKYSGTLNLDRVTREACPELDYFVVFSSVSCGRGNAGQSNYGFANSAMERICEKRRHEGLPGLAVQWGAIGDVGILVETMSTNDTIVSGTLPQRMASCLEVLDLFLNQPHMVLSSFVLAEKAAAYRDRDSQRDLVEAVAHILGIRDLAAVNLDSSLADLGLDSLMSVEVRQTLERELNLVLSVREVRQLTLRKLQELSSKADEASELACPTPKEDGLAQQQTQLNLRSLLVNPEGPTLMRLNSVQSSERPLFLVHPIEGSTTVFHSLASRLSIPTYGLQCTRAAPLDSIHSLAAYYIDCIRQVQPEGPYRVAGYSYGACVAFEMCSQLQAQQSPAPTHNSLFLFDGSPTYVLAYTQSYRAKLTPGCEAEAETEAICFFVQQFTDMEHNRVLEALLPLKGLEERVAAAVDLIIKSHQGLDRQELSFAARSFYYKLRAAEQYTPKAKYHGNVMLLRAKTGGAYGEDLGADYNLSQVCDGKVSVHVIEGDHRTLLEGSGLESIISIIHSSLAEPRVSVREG

[10] = target: Photoreceptor-specific nuclear receptor (Homo sapiens, UniProt Q9Y5X4); format: functional, cell-based;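 further: CHO-S cells with Gal4-NCOR and VP16-NR2E3 two-hybrid luciferase reporter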
Sequence of Photoreceptor-specific nuclear receptor (Q9Y5X4 whole entry, the tested form may be a part): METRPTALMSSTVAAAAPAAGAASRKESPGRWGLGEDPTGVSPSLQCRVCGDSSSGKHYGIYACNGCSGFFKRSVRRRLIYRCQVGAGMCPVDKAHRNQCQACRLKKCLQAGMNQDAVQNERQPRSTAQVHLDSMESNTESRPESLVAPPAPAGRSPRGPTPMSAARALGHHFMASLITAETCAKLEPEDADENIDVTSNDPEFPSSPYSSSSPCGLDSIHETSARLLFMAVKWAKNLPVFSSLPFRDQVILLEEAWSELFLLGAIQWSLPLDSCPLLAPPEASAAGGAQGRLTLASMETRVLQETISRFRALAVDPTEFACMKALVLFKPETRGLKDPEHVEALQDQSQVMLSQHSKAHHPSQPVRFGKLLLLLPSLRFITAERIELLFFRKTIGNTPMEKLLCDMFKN

[11] = target: T5, Fatty acid synthase; assay: FAS thioesterase domain inhibitors, dose response, biochemical, endpoint fluorescence intensity, uHTS hits (AID 624327); format: functional;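 further: fluorescence from hydrolysis of an O-methyl fluorescein acyl ester substrate by the enzyme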
[12] = intracellular Trypanosoma cruzi inhibitors in host cells – cell-based, plate reader, cherry-pick samples, set 3, dose response (AID 651818); format: functional;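 further: compounds incubated with infected cells for about four days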
[13] = target: T6, Histone-lysine N-methyltransferase NSD2 (Homo sapiens, UniProt O96028); format: biochemical
T6 sequence (O96028 whole entry): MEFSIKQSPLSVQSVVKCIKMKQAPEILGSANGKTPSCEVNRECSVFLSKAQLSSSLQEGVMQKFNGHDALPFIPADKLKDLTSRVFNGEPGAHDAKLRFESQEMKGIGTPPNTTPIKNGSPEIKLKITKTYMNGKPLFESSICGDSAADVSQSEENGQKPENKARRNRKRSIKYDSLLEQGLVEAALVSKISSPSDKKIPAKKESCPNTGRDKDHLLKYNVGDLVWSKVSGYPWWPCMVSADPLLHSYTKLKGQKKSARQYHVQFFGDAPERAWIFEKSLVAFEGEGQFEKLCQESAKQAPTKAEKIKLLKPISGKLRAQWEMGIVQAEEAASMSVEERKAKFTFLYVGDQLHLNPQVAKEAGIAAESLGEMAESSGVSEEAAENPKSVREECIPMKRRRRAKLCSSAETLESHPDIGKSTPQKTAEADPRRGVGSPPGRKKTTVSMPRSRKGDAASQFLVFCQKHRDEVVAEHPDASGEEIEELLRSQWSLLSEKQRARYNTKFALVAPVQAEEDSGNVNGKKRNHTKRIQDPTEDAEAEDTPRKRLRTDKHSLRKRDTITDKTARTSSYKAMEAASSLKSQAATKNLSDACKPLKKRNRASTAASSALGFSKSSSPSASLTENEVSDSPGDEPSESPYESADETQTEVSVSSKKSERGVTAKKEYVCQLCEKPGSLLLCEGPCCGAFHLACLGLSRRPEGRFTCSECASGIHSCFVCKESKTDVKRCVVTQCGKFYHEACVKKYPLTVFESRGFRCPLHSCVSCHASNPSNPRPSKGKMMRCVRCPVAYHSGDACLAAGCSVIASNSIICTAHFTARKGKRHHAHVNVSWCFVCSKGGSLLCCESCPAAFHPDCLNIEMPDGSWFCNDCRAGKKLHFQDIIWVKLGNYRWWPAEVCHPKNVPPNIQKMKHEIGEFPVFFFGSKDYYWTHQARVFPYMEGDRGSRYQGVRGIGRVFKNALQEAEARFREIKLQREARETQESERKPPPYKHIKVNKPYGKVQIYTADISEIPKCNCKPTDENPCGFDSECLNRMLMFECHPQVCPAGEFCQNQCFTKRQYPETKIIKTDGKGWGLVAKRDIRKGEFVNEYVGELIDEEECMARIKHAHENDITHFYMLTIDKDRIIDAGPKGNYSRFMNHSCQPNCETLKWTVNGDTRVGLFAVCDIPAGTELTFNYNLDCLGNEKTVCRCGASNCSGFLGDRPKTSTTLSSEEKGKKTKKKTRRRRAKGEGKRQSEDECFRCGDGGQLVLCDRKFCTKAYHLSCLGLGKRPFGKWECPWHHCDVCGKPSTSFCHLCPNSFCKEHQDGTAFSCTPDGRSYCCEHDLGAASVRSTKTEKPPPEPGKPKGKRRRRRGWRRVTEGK

[14] = target: T7, Caspase-6 (Homo sapiens, UniProt P55212); assay: human caspase-6 inhibitors, dose response, biochemical, VEID-R110 fluorescence, cherry-pick (AID 720632)
T7 sequence (P55212 whole entry): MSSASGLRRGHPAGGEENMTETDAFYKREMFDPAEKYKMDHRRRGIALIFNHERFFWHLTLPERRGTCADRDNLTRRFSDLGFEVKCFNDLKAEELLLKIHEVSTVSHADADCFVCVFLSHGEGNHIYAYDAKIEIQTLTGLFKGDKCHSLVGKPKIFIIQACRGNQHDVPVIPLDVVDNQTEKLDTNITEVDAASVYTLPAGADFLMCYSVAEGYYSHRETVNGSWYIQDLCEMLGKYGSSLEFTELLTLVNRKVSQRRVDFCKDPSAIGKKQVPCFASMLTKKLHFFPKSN

[15] = target: T8, Polyadenylate-binding protein 1 (Homo sapiens, UniProt P11940); assay: PABP1 MLLE–PAM2 binding inhibitor potency, dose response, biochemical, fluorescence polarization, FITC-PAM2 peptide (AID 602259); format: functional; conditions: read-out: IC50_Mean
T8 sequence (P11940 whole entry): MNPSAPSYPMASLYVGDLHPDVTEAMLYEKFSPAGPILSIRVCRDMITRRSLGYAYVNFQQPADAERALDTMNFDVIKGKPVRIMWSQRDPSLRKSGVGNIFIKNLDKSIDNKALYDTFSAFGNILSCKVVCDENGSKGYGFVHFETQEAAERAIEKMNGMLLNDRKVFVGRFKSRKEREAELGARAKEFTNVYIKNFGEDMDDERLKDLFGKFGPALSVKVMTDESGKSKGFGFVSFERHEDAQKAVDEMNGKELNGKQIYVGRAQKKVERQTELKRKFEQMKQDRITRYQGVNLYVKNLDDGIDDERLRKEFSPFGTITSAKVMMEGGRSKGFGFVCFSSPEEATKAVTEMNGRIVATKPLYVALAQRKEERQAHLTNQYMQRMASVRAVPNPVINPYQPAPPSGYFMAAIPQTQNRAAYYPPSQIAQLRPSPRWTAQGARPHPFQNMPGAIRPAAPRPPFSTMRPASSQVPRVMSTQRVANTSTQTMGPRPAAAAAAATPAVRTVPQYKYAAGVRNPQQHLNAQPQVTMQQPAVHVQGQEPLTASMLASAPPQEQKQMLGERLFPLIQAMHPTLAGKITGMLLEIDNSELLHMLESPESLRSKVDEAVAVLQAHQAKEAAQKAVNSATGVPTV

[16] = target: T8, Polyadenylate-binding protein 1; assay: PABP1 MLLE–PAM2 interaction inhibitors, dose response, miRNA deadenylation inhibitor project, biochemical, fluorescence polarization, Cy5-PAM2 peptide, secondary (AID 602260); format: functional; conditions: read-out: IC50_Mean

Sequence of Dual specificity protein phosphatase 3 (P51452 whole entry): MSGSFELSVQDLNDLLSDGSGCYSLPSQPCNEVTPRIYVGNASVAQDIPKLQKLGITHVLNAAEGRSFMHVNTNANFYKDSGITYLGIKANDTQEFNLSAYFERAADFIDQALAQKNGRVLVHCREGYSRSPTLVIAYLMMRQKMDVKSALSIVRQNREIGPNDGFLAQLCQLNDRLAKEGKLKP

Cc1ccc(C(=S)N2CCN(Cc3ccccc3)CC2)s1
IC50 [1]: 0.997 µM (active) | IC50 [2]: 16.5 µM (active) | IC50 [3]: 3.1 µM (active)

O=C(CN1C(=O)CCC1=O)Nc1ccc(Br)cc1
IC50 [4]: 11.1 µM (inactive) | IC50 [5]: 35.9 µM (inactive) | IC50 [6]: 8.78 µM (active)

O=[N+]([O-])c1cc(F)c(N2CCCCCC2)cc1N1CCNCC1
IC50 [4]: 3.99 µM (active) | IC50 [5]: 35 µM (inactive) | IC50 [6]: 6.27 µM (active)

CN(C)CCNc1ncnc2sc(-c3ccccc3)cc12
AC50 [7]: 9 µM (active) | AC50 [8]: 27.2 µM (active)

CCCCCCCCCCCCN1[C@@H](CC(=O)O)c2cc(F)ccc2S1(=O)=O
IC50 [9]: 2.62 µM (active) | IC50 [10]: 4.28 µM (active) | IC50 [11]: 2.83 µM (active)

C[C@@H]1CN([C@H](C)CO)C(=O)c2cccc(NC(=O)c3nc4ccccc4s3)c2O[C@H]1CN(C)S(=O)(=O)c1ccc(Cl)cc1
AC50 [12]: 0.964 µM (active)

C[C@H](CO)N1C[C@H](C)[C@H](CN(C)S(=O)(=O)c2ccc(F)cc2)Oc2ccc(NS(=O)(=O)c3ccc(F)cc3)cc2C1=O
AC50 [12]: 7.7 µM (active)

C[C@H]1CN([C@@H](C)CO)C(=O)Cc2cc(NC(=O)Nc3cccc4ccccc34)ccc2O[C@@H]1CN(C)CC1CCCCC1
AC50 [12]: 4.35 µM (active)

Nc1ccc2c(O)cc(S(=O)(=O)O)cc2c1
AC50 [13]: 6.49 µM (active) | IC50 [1]: 3.43 µM (active) | AC50 [14]: 2.15 µM (active) | IC50 [2]: 33.4 µM (inactive) | IC50 [3]: 1.04 µM (active) | IC50 [15]: > 66 µM (inactive) | IC50 [16]: > 66 µM (inactive)
